Molecules are shown by their SMILES.

By melting point is commonly meant the temperature, or range, at which the solid turns liquid. `CCC(C)C(CC)C1=NC2=C(c3ccc(Cl)cc3Cl)N=NC(=O)C2=N1` (stereo not shown) [Example 1, 4-(2,4-dichlorophenyl)-2-ethyl-1-(1-ethyl)propyl-imidazo[4,5-d]pyridazin-7-one] yielded a melting point of 246 to 247 °C.

Source of the values: patent US6518271B1, “1H-imidazo[4,5-d]pyridazin-7-one, and corresponding thiones as corticotropin releasing factor (CRF) receptor ligands” (Bristol-Myers Squibb Company, priority 1998, dated 2003).
